Measured values taken from patent US5910494A, “Hypolipidemic 1,4-benzothiazepine-1,1-dioxides” (Glaxo Wellcome Inc., priority 1997, dated 1999).

System: ileal bile acid active uptake transport system
Assay: In vivo inhibition of bile acid uptake: fecal excretion of 75SeHCAT (% inhibition of 75SeHCAT)
Design: species or system Male Spraque-Dawley rats
Conditions: oral gavage, twice daily for two days, rat, feces over 24 hr
From the text: In vivo inhibition of bile acid uptake
Inhibiting intestinal bile acid absorption with bile acid sequestrants or surgically with partial ileal bypass surgery is an effective way to decrease plasma LDL cholesterol concentration. Another approach to decreasing bile acid absorption is inhibiting the ileal bile acid active uptake transport system. It has been shown that this inhibition, as measured by the fecal excretion of bile acids results in hypocholesterolemic activity. (1) Lewis, M. C.; Brieaddy, L. E.; and Root, C. Effects of 2164U90 on Ileal Bile Acid Absorption and Serum Cholesterol in Rats and Mice. J. Lipid. Research., 1995, 36, 1098-1105.
Fecal Excretion of Bile Acids
Male Spraque-Dawley rats weighing 220-260 g were housed in individual cages and fed normal chow. The rats were divided into 6 treatment groups of 10 to 12 rats per group. The rats were dosed by oral gavage(1 mL/100 g body weight) with test compounds as a suspension in 0.5% methylcellulose at 9:00 am and 3:30 pm for two days. The control group received 0.5% methylcellulose. Two hours after the morning dose on day two, the rats were given a trace amount(1.3 nmoles) of 23, 25-^75 Se-homocholic acid taurine(^75 SeHCAT) in 1.0 mL saline orally. ^75 SeHCAT, a synthetic gamma emitting bile acid analog which is absorbed by the ileal bile acid uptake system similar to taurocholic acid, has been used clinically as a measure of ileal bile acid absorptionl,^1,2. Feces were collected over the 24 hr following ^75 SeHCAT administration. Fecal content of ^75 SeHCAT was determined using a Packard Auto-Gamma 5000 Series gamma-counter. Representative data are tabulated in Table 1 as the % inhibition of ^75 SeHCAT.

| Compound | % Inhibition of ^75 SeHCAT (0.1 mg/kg) | % Inhibition of ^75 SeHCAT (0.3 mg/kg) | % Inhibition of ^75 SeHCAT (1.0 mg/kg) |
| --- | --- | --- | --- |
| CCCC[C@]1(CC)CS(=O)(=O)c2cc(OC)ccc2[C@@H](c2ccccc2)N1 (relative stereo) [Example 10, (+-)-Trans-3-butyl-3-ethyl-2,3,4,5-tetrahydro-8-methoxy-5-phenyl-1,4-benzothiazepine 1,1-dioxide] | 33% | 53% |  |
| CCCC[C@]1(CC)CS(=O)(=O)c2cc(O)ccc2[C@@H](c2ccccc2)N1 (relative stereo) [Example 11, (+-)-trans-3-butyl-3-ethyl-2,3,4,5-tetrahydro-5-phenyl-1,4-benzothiazepine-8-ol 1,1-dioxide] | 71% | 72% |  |
| CCCC[C@]1(CC)CS(=O)(=O)c2cc(OC)c(C=O)cc2[C@@H](c2ccccc2)N1 (relative stereo) [Example 14, (+-)-Trans-3-butyl-3-ethyl-2,3,4,5-tetrahydro-8-methoxy-5-phenyl-1,4-benzothiazepine-7-carbaldehyde 1,1-dioxide] |  | 41% | 56% |
| CCCC[C@]1(CC)CS(=O)(=O)c2cc(O)c(C=O)cc2[C@@H](c2ccccc2)N1 (relative stereo) [Example 16, (+-)-Trans-3-butyl-3-ethyl-2,3,4,5-tetrahydro-8-hydroxy-5-phenyl-1,4-benzothiazepine-7-carbaldehyde 1,1-dioxide] |  | 34% | 44% |
| CCCC[C@]1(CC)CS(=O)(=O)c2cc(S(=O)(=O)O)ccc2[C@@H](c2ccccc2)N1 (relative stereo) [Example 18, (+-)-Trans-3-butyl-3-ethyl-2,3,4,5-tetrahydro-5-phenyl-1,4-benzothiazepine-8-sulfonic acid 1,1-dioxide] |  | 12% | 39% |
| CCCC[C@]1(CC)CS(=O)(=O)c2cc(OC)c(COC)cc2[C@@H](c2ccccc2)N1 (relative stereo) [Example 24, (+-)-Trans-3-butyl-3-ethyl-2,3,4,5-tetrahydro-8-methoxy-7-(methoxymethyl)-5-phenyl-1,4-benzothiazepine 1,1-dioxide] |  | 24% | 49% |
| CCCC[C@]1(CC)CS(=O)(=O)c2cc(OC)c(OC)cc2[C@@H](c2ccccc2)N1OC(C)=O (relative stereo) [Example 45, (+-)-Trans-3-butyl-3-ethyl-5-phenyl-2,3,4,5-tetrahydro-7,8-dimethoxy-1,4-benzothiazepin-4-yl acetate S,S-dioxide] |  | 6% | 26% |
| CCCC[C@]1(CC)CS(=O)(=O)c2cc(OC)c(OC)cc2[C@@H](c2ccccc2)N1 [Example 1, (3R,5R)-3-butyl-3-ethyl-2,3,4,5-tetrahydro-7,8-dimethoxy-5-phenyl-1-4-benzothiazepine 1,1-dioxide] | 54% | 51% |  |
| CCCC[C@]1(CC)CS(=O)(=O)c2cc(O)c(O)cc2[C@@H](c2ccccc2)N1 [Example 7, (3R,5R)-3-Butyl-3-ethyl-2,3,4,5-tetrahydro-5-phenyl-1,4-benzothiazepine-7,8-diol 1,1-dioxide] | 72% | 65% |  |
| CCCC[C@]1(CC)CS(=O)(=O)c2cc(O)c(OC)cc2[C@@H](c2ccccc2)N1 [Example 9, (3R,5R)-3-Butyl-3-ethyl-2,3,4,5-tetrahydro-7-methoxy-5-phenyl-1,4-benzothiazepine-8-ol 1,1-dioxide] | 70% | 80% |  |
